Experimental data reported in US12472226B2, “Cell-permeable peptide” (priority 2019, dated 2025).
Non-standard residues stand in square brackets, D forms with d. No end group written: not given here. *: point of attachment. FITC = O=C1OC2(c3ccc(O)cc3Oc3cc(O)ccc32)c2ccc(NC(=S)*)cc21; Ahx = NCCCCCC(=O)O

What was measured:
HL-60 cells = experiment: Test of inducing cell-death in vitro (Calcein-AM/PI dead cell rate); format: cell-based, human; settings: 50 μg/mL, 9 days
Text: (§1) Human fibrosarcoma-derived HT-1080 cells (HT-1080 cells, JCRB cell bank) were used as cancer cells in the test for monitoring changes in mitochondrial membrane potential. HT-1080 cells, human osteosarcoma cell line Hos cells (Hos cells, JCRB cell bank), human histiocytic lymphoma/macrophage U937 cells (U937 cells, JCRB cell bank), human myeloid leukemia HL-60 cells (HL-60 cells, JCRB cell bank), acute monocytic leukemia THP-1 cells (THP-1 cells, JCRB cell bank), human alveolar basal epithelial adenocarcinoma cell A549 cells (A549 cells, Cell Resource Center for Biomedical Research, Institute of Development, Aging and Cancer, Tohoku University), human pancreatic carcinoma cells (MIA Paca 2 cells, Cell Resource Center for Biomedical Research, Institute of Development, Aging and Cancer, Tohoku University) and well differentiated human liver carcinoma-derived cell line HuH7 cells (HuH7 cells, Cell Resource Center for Biomedical Research, Institute of Development, Aging and Cancer, Tohoku University) were used as cancer cells in an in vitro cell-death induction test of cancer cells and a nuclear transport test of Example 2. Normal human gingival fibroblast cells Gin-1 (Gin-1 cells, DS Pharma Biomedical) were used as a control. The above-described cells were each inoculated into a 96-well culture plate (Falcon) at 5,000 cells/[…] and subjected to the following tests.
(§2) The peptide of SEQ ID NO: 1 labeled with FITC (Example 2) was used for the test of inducing cell-death in vitro in cancer cells. It was prepared the test example to which 100 μL of Example 2 and further 10% FBS were added and cultured for 9 days under conditions of 200 μL of serum-supplemented medium (Alpha modification of Eagle's MEM (α-MEM) (Thermo Fisher Scientific)+10% FBS). Furthermore, it was also produced the test example that was cultured for 21 days with the whole amount of Example 2-supplemented medium replaced every 7 days. As a control, the cells were cultured in a serum-supplemented medium (α-MEM+10% FBS) without addition and were used. A supernatant was removed after the completion of the culture. The cells were washed once with PBS and stained in PBS to which a fluorescent dye for living cell staining Calcein-AM (DOJINDO LABORATORIES) (final concentration: 0.1 μg/mL) and a fluorescent dye for dead cell staining Propidium Iodide (PI) (DOJINDO LABORATORIES) (final concentration: 0.3 μg/mL) were added, at 37° C. in a 5% CO2 cell incubator for 30 minutes. The living cells and dead cells were separately stained with Calcein-AM and PI, respectively and imaged with the confocal laser scanning microscope LSM800. Next, the dead cell rate relative to the number of total cells was analyzed using ImageJ.
(§3) The results are represented by the average value of the dead cell rate (the number red cells stained with IP/the number of total cells×100(%))±standard deviation (SD). In FIG. 2A, the vertical axis represents the rate of cell death when each cell was cultured with Example 2 (50 μg/mL) for 9 days and the horizontal axis represents various types of cells. The increase in the dead cell rate of the Gin-1 cells was not observed.

U937 cells = experiment: as above; format: cell-based, human; settings: 50 μg/mL, 9 days
Text: as §1, §2, §3

THP-1 cells = experiment: as above; format: cell-based, human; settings: 50 μg/mL, 9 days
Text: as §1, §2, §3

Gin-1 cells = experiment: as above; format: cell-based, human; settings: 50 μg/mL, 9 days
Text: as §1, §2, §3

Hos cells = experiment: as above; format: cell-based, human; settings: 50 μg/mL, 9 days
Text: as §1, §2, §3

CD13 = molecular target: T1, CD13 (Homo sapiens, UniProt P15144); experiment: Analytical test of binding protein by immunoprecipitation; settings: HT-1080 cells, 80 μg/400 μL, 4° C., 2 hours
T1 construct: endogenous in cells; host or cells: HT-1080 cells
Protocol: Example 2 (80 μg/400 μL) reacted to HT-1080 cells (40 million cells) at 4° C. for 2 hours. The cells were then washed with PBS, and centrifuged. The centrifuged cells were dissolved in 1,000 μL of IP Lysis/Wash buffer (Thermo Fisher Scientific) with Halt Protease & Phosphatase inhibitor Single-Use Cocktail, ETDA-Free (Thermo Fisher Scientific) (10 μL) at 4° C. for 5 minutes. It was centrifuged at 4° C. for 10 minutes and the supernatant was collected. The supernatant was adjusted to be 1 mg in amount of protein and 80 μL of A/G agarose was added to it. The mixture was stirred at 4° C. for 1 hour and then centrifuged for 1 minute. Thus, a pre-treatment solution was obtained. 10 μg of IgG Fraction Monoclonal Mouse Anti-Fluorescein (FITC) (Jackson ImmunoResearch) or 10 μg of Mouse IgG Isotype Control (Thermo Fisher Scientific) was each added to the pre-treatment solution (1 mg/600 μL), and the mixtures were shaken at 4° C. overnight. Subsequently, 20 μL of A/G agarose was added and the mixtures were shaken at 4° C. for 2 hours. The mixtures were washed three times with the wash buffer described above and 20 μL of 2×Non-reducing Lane Marker Sample Buffer (Thermo Fisher Scientific) was added to the A/G agaroses. […]
The 10% solution used in immunoprecipitation was loaded to the left lane of FIG. 3. […] CD13 was not detected on the right lane, but CD 13 was detected on the center lane.

HT-1080 cells = experiment: Test of inducing cell-death in vitro (Calcein-AM/PI dead cell rate); format: cell-based, human; settings: for increase in the dead cell rate: day 21
Text: as §1, §2, §3
The concentrations of Examples 2 and 4 to 6 were adjusted to 12.5, 25, 50 and 100 μg/mL, respectively and then administrated to the HT-1080 cells for 9 days tested by the same method as in Test Example 2A. The cell staining and subsequent analyses of the dead cell rate relative to the number of total cells were performed in the same manner as Test Example 2A.

T1 sequence (P15144 whole entry): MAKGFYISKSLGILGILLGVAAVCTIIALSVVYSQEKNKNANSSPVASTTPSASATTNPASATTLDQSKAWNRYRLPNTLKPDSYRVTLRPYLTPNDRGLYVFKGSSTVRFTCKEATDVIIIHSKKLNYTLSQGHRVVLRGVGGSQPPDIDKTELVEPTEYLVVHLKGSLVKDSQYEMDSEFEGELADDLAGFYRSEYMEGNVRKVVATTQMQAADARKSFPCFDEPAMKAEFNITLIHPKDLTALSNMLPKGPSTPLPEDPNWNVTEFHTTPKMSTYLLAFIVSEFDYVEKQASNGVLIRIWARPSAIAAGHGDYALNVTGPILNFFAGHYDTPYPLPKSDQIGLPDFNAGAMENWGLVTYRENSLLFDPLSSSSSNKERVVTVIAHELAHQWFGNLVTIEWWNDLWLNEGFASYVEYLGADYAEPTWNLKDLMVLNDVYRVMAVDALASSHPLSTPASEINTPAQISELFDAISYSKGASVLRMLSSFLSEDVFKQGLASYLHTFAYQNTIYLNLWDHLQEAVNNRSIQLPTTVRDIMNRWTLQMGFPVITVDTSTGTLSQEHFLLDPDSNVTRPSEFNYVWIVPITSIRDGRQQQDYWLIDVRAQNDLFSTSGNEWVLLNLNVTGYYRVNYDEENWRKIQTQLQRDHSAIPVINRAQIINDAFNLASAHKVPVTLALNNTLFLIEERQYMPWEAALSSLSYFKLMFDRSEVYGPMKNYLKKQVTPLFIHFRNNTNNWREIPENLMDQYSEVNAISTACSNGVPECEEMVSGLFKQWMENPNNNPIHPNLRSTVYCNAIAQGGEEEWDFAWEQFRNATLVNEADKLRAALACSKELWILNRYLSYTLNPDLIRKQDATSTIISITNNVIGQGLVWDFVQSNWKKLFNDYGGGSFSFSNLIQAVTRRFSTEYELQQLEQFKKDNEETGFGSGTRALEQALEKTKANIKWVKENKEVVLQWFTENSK

Example 2: peptide of SEQ ID NO: 1 labeled with FITC, bound via an Ahx linker at the N-terminus ({FITC}-[Ahx]KDNRGNLLQCVCTGNGRGEWKC; cysteine pairing not given here)
increase in the dead cell rate vs control (HL-60 cells): significant difference at the level of 1% | increase in the dead cell rate vs control (U937 cells): significant difference at the level of 1% | increase in the dead cell rate vs control (THP-1 cells): significant difference at the level of 5% | increase in the dead cell rate vs control (Gin-1 cells): not observed | increase in the dead cell rate vs control (Hos cells): significant difference at the level of 1% | binding to CD13 (co-immunoprecipitation with anti-FITC, Western blotting) (CD13): proved to bind to CD13 on a cell membrane specifically | increase in the dead cell rate (HT-1080 cells; 6.25 μg/mL): ≥ 75% | increase in the dead cell rate (HT-1080 cells; 12.5 μg/mL): ≥ 75% | increase in the dead cell rate (HT-1080 cells; 25 μg/mL): ≥ 95% | increase in the dead cell rate vs control (HT-1080 cells; 50 μg/mL, 9 days): significant difference at the level of 1% | increase in the dead cell rate (HT-1080 cells; 50 μg/mL): ≥ 95% | increase in the dead cell rate (HT-1080 cells; 100 μg/mL): ≥ 95%
